Target: Aβ42 (Homo sapiens, UniProt P05067)
Test: Th-T (thioflavin-T) assay of Aβ42 aggregation
Format: biochemical
Details: for Th-T assay plate reading, mean of three wells (Supplementary Fig. 47): source data, Ab alone and No Ab as controls

Sequence of Aβ42 (P05067 672-713): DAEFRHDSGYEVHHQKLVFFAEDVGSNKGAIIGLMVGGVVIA

Structure (SMILES): C=C1CC[C@H]2[C@]3(C)C[C@H](C=C(C)C)O[C@H]3CC[C@]2(C)[C@@H]1Cc1c(OC)oc(CO)c(C)c1=O [Compound 18]
- Th-T fluorescence, mean of three wells (Aβ42 aggregation time course, reading M117): 3.827
- Th-T fluorescence, mean of three wells (Aβ42 aggregation time course, reading M118): 3.826
- Th-T fluorescence, mean of three wells (Aβ42 aggregation time course, reading M119): 3.802
- Th-T fluorescence, mean of three wells (Aβ42 aggregation time course, reading M120): 3.809
- Th-T fluorescence, mean of three wells (Aβ42 aggregation time course, reading M121): 3.768
- Th-T fluorescence, mean of three wells (Aβ42 aggregation time course, reading M122): 3.8239
- Th-T fluorescence, mean of three wells (Aβ42 aggregation time course, reading M123): 3.779
- Th-T fluorescence, mean of three wells (Aβ42 aggregation time course, reading M124): 3.775
- Th-T fluorescence, mean of three wells (Aβ42 aggregation time course, reading M125): 3.791
- Th-T fluorescence, mean of three wells (Aβ42 aggregation time course, reading M126): 3.753
- Th-T fluorescence, mean of three wells (Aβ42 aggregation time course, reading M127): 3.782
- Th-T fluorescence, mean of three wells (Aβ42 aggregation time course, reading M128): 3.792
- Th-T fluorescence, mean of three wells (Aβ42 aggregation time course, reading M129): 3.762
- Th-T fluorescence, mean of three wells (Aβ42 aggregation time course, reading M130): 3.763
- Th-T fluorescence, mean of three wells (Aβ42 aggregation time course, reading M131): 3.755
- Th-T fluorescence, mean of three wells (Aβ42 aggregation time course, reading M132): 3.815
- Th-T fluorescence, mean of three wells (Aβ42 aggregation time course, reading M133): 3.777
- Th-T fluorescence, mean of three wells (Aβ42 aggregation time course, reading M134): 3.764
- Th-T fluorescence, mean of three wells (Aβ42 aggregation time course, reading M135): 3.756
- Th-T fluorescence, mean of three wells (Aβ42 aggregation time course, reading M136): 3.746
- Th-T fluorescence, mean of three wells (Supplementary Fig. 47, reading M137): 3.774
- Th-T fluorescence, mean of three wells (Supplementary Fig. 47, reading M138): 3.771
- Th-T fluorescence, mean of three wells (Supplementary Fig. 47, reading M139): 3.713
- Th-T fluorescence, mean of three wells (Supplementary Fig. 47, reading M140): 3.758
- Th-T fluorescence, mean of three wells (Supplementary Fig. 47, reading M141): 3.7322
- Th-T fluorescence, mean of three wells (Supplementary Fig. 47, reading M142): 3.721
- Th-T fluorescence, mean of three wells (Supplementary Fig. 47, reading M143): 3.695
- Th-T fluorescence, mean of three wells (Supplementary Fig. 47, reading M144): 3.702
- Th-T fluorescence, mean of three wells (Supplementary Fig. 47, reading M145): 3.716
- Th-T fluorescence, mean of three wells (Supplementary Fig. 47 source data, measurement M37 of time course): 3.803
- Th-T fluorescence, mean of three wells (Supplementary Fig. 47 source data, measurement M38 of time course): 3.788
- Th-T fluorescence, mean of three wells (Supplementary Fig. 47 source data, measurement M39 of time course): 3.823
- Th-T fluorescence, mean of three wells (Supplementary Fig. 47 source data, measurement M40 of time course): 3.844
- Th-T fluorescence, mean of three wells (Supplementary Fig. 47 source data, measurement M41 of time course): 3.831
- Th-T fluorescence, mean of three wells (Supplementary Fig. 47 source data, measurement M42 of time course): 3.8461
- Th-T fluorescence, mean of three wells (Supplementary Fig. 47 source data, measurement M43 of time course): 3.853
- Th-T fluorescence, mean of three wells (Supplementary Fig. 47 source data, measurement M44 of time course): 3.884
- Th-T fluorescence, mean of three wells (Supplementary Fig. 47 source data, measurement M45 of time course): 3.893
- Th-T fluorescence, mean of three wells (Supplementary Fig. 47 source data, measurement M46 of time course): 3.909
- Th-T fluorescence, mean of three wells (Supplementary Fig. 47 source data, measurement M47 of time course): 3.912
- Th-T fluorescence, mean of three wells (Supplementary Fig. 47 source data, measurement M48 of time course): 3.912
- Th-T fluorescence, mean of three wells (Supplementary Fig. 47 source data, measurement M49 of time course): 3.934
- Th-T fluorescence, mean of three wells (Supplementary Fig. 47 source data, measurement M50 of time course): 3.962
- Th-T fluorescence, mean of three wells (Supplementary Fig. 47 source data, measurement M51 of time course): 3.932
- Th-T fluorescence, mean of three wells (Supplementary Fig. 47 source data, measurement M52 of time course): 3.964
- Th-T fluorescence, mean of three wells (Supplementary Fig. 47 source data, measurement M53 of time course): 3.941
- Th-T fluorescence, mean of three wells (Supplementary Fig. 47 source data, measurement M54 of time course): 3.968
- Th-T fluorescence, mean of three wells (Supplementary Fig. 47 source data, measurement M55 of time course): 3.9543
- Th-T fluorescence, mean of three wells (Supplementary Fig. 47 source data, measurement M56 of time course): 4.004
- Th-T assay plate reading, mean of three wells (Supplementary Fig. 47) (measurement M1): 0.2027
- Th-T assay plate reading, mean of three wells (Supplementary Fig. 47) (measurement M2): 0.2169
- Th-T assay plate reading, mean of three wells (Supplementary Fig. 47) (measurement M3): 0.2567
- Th-T assay plate reading, mean of three wells (Supplementary Fig. 47) (measurement M4): 0.2868
- Th-T assay plate reading, mean of three wells (Supplementary Fig. 47) (measurement M5): 0.363
- Th-T assay plate reading, mean of three wells (Supplementary Fig. 47) (measurement M6): 0.3665
- Th-T assay plate reading, mean of three wells (Supplementary Fig. 47) (measurement M7): 0.43
- Th-T assay plate reading, mean of three wells (Supplementary Fig. 47) (measurement M8): 0.4699
- Th-T assay plate reading, mean of three wells (Supplementary Fig. 47) (measurement M9): 0.5243
- Th-T assay plate reading, mean of three wells (Supplementary Fig. 47) (measurement M10): 0.5956
- Th-T assay plate reading, mean of three wells (Supplementary Fig. 47) (measurement M11): 0.7582
- Th-T assay plate reading, mean of three wells (Supplementary Fig. 47) (measurement M12): 1.169
- Th-T assay plate reading, mean of three wells (Supplementary Fig. 47) (measurement M13): 1.941
- Th-T assay plate reading, mean of three wells (Supplementary Fig. 47) (measurement M14): 2.67
- Th-T assay plate reading, mean of three wells (Supplementary Fig. 47) (measurement M15): 3.082
- Th-T assay plate reading, mean of three wells (Supplementary Fig. 47) (measurement M16): 3.287
- Th-T fluorescence, mean of three wells (reading M17, Supplementary Fig. 47 source data): 3.39
- Th-T fluorescence, mean of three wells (reading M18, Supplementary Fig. 47 source data): 3.467
- Th-T fluorescence, mean of three wells (reading M19, Supplementary Fig. 47 source data): 3.485
- Th-T fluorescence, mean of three wells (reading M20, Supplementary Fig. 47 source data): 3.511
- Th-T fluorescence, mean of three wells (reading M21, Supplementary Fig. 47 source data): 3.555
- Th-T fluorescence, mean of three wells (reading M22, Supplementary Fig. 47 source data): 3.568
- Th-T fluorescence, mean of three wells (reading M23, Supplementary Fig. 47 source data): 3.6
- Th-T fluorescence, mean of three wells (reading M24, Supplementary Fig. 47 source data): 3.61
- Th-T fluorescence, mean of three wells (reading M25, Supplementary Fig. 47 source data): 3.637
- Th-T fluorescence, mean of three wells (reading M26, Supplementary Fig. 47 source data): 3.637
- Th-T fluorescence, mean of three wells (reading M27, Supplementary Fig. 47 source data): 3.663
- Th-T fluorescence, mean of three wells (reading M28, Supplementary Fig. 47 source data): 3.673
- Th-T fluorescence, mean of three wells (reading M29, Supplementary Fig. 47 source data): 3.697
- Th-T fluorescence, mean of three wells (reading M30, Supplementary Fig. 47 source data): 3.695
- Th-T fluorescence, mean of three wells (reading M31, Supplementary Fig. 47 source data): 3.715
- Th-T fluorescence, mean of three wells (reading M32, Supplementary Fig. 47 source data): 3.7502
- Th-T fluorescence, mean of three wells (reading M33, Supplementary Fig. 47 source data): 3.748
- Th-T fluorescence, mean of three wells (reading M34, Supplementary Fig. 47 source data): 3.745
- Th-T fluorescence, mean of three wells (reading M35, Supplementary Fig. 47 source data): 3.779
- Th-T fluorescence, mean of three wells (reading M36, Supplementary Fig. 47 source data): 3.8
- Th-T fluorescence, mean of three wells (time course, reading M57): 3.991
- Th-T fluorescence, mean of three wells (time course, reading M58): 4.013
- Th-T fluorescence, mean of three wells (time course, reading M59): 3.958
- Th-T fluorescence, mean of three wells (time course, reading M60): 3.988
- Th-T fluorescence, mean of three wells (time course, reading M61): 3.973
- Th-T fluorescence, mean of three wells (time course, reading M62): 3.97
- Th-T fluorescence, mean of three wells (time course, reading M63): 3.951
- Th-T fluorescence, mean of three wells (time course, reading M64): 3.976
- Th-T fluorescence, mean of three wells (time course, reading M65): 3.959
- Th-T fluorescence, mean of three wells (time course, reading M66): 3.962
- Th-T fluorescence, mean of three wells (time course, reading M67): 3.958
- Th-T fluorescence, mean of three wells (time-course reading M97, Supplementary Fig. 47 source data): 3.893
- Th-T fluorescence, mean of three wells (time-course reading M98, Supplementary Fig. 47 source data): 3.89
- Th-T fluorescence, mean of three wells (time-course reading M99, Supplementary Fig. 47 source data): 3.924
- Th-T fluorescence, mean of three wells (time-course reading M100, Supplementary Fig. 47 source data): 3.864
- Th-T fluorescence, mean of three wells (time-course reading M101, Supplementary Fig. 47 source data): 3.863
- Th-T fluorescence, mean of three wells (time-course reading M102, Supplementary Fig. 47 source data): 3.862
- Th-T fluorescence, mean of three wells (time-course reading M103, Supplementary Fig. 47 source data): 3.898
- Th-T fluorescence, mean of three wells (time-course reading M104, Supplementary Fig. 47 source data): 3.892
- Th-T fluorescence, mean of three wells (time-course reading M105, Supplementary Fig. 47 source data): 3.876
- Th-T fluorescence, mean of three wells (time-course reading M106, Supplementary Fig. 47 source data): 3.8607
- Th-T fluorescence, mean of three wells (time-course reading M107, Supplementary Fig. 47 source data): 3.854
- Th-T fluorescence, mean of three wells (time-course reading M108, Supplementary Fig. 47 source data): 3.8485
- Th-T fluorescence, mean of three wells (time-course reading M109, Supplementary Fig. 47 source data): 3.821
- Th-T fluorescence, mean of three wells (time-course reading M110, Supplementary Fig. 47 source data): 3.872
- Th-T fluorescence, mean of three wells (time-course reading M111, Supplementary Fig. 47 source data): 3.799
- Th-T fluorescence, mean of three wells (time-course reading M112, Supplementary Fig. 47 source data): 3.848
- Th-T fluorescence, mean of three wells (time-course reading M113, Supplementary Fig. 47 source data): 3.819
- Th-T fluorescence, mean of three wells (time-course reading M114, Supplementary Fig. 47 source data): 3.862
- Th-T fluorescence, mean of three wells (time-course reading M115, Supplementary Fig. 47 source data): 3.831
- Th-T fluorescence, mean of three wells (time-course reading M116, Supplementary Fig. 47 source data): 3.8198
